molecular target: T1, rat EP1 receptor (Rattus norvegicus, UniProt P70597); assay: Test for confirmation of EP1 receptor antagonism: inhibition of prostaglandin E2-induced increase in intracellular calcium concentration (Method A or Method B); assay type: cell-based; conditions: Method A (Fluo-4 NW, FlexStation); rat EP1 receptor-expressing cells; prostaglandin E2 10 nM
T1 construct: expressed in transfected cells; host or cells: COS-1 cells, transient transfection with Lipofectamine 2000
T1 sequence (P70597 1-405): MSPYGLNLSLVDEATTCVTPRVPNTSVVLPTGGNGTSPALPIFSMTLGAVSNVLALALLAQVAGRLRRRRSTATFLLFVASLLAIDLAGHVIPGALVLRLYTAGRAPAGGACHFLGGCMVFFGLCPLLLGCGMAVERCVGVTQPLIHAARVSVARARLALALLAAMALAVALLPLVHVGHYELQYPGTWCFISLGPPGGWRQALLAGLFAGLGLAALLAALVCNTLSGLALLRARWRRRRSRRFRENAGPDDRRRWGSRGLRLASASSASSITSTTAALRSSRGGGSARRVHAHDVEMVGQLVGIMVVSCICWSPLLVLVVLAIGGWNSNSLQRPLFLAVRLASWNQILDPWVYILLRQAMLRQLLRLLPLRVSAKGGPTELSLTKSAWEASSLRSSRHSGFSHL
Experimental: (1) Preparation of Rat EP1 Expression vector
Using Rat Kidney BD Marathon-Ready cDNA (Nippon Becton Dickinson Company, Ltd.) as a template, a forward primer shown in SEQ ID NO. 1, and a reverse primer shown in SEQ ID NO. 2, a first run of PCR was carried out using KOD-Plus-Ver 2.0 (Toyobo Co., Ltd.). Further, using this amplification product as a template, a forward primer shown in SEQ ID NO. 3, and a reverse primer shown in SEQ ID NO. 4, a second run of PCR was carried out in the same manner. The amplification product obtained by the second run of PCR was incorporated into a vector (pcDNA3.1 D/V5-His-TOPO (registered trademark), Invitrogen Japan K. K.). By a conventional method, the vector containing this amplification product was introduced to E. coli (One Shot TOP10 Competent Cells, Invitrogen Corporation) to transform. This transformed E. coli was cultured in an LB agar medium for one day. After the culture, colonies were selected and cultured in an LB liquid medium containing 50 μg/mL of ampicillin. After the culture, the vector was purified using a QIAprep Spin Miniprep Kit (Qiagen K. K.). The base sequence of the insertion site of this vector (SEQ ID NO. 5) was compared with the rat EP1 base sequence (Ptger1) registered as an accession number NM_013100 in well-known database (NCBI), and as a result, they all matched except for a single base. Further, the amino acid sequence translated by the base sequence completely matched the amino acid sequence of the rat EP1 receptor registered as an NCBI accession number NP_037232. Therefore, it was confirmed that the cloned gene sequence was a base sequence of the rat EP1 receptor and the obtained amino acid sequence was that of the rat EP1 receptor. The pcDNA3.1 D/V5-His-TOPO (registered trademark) to which the nucleic acid shown in SEQ ID NO. 5 had been inserted was taken as a rat EP1-expressing vector.
(2) Preparation of Rat EP1 Receptor-Expressing Cells
COS-1 cells (Dainippon Sumitomo Pharma Co., Ltd.) were cultured until it reached confluence in an incubator at 37° C. under a 5% CO2 gas condition, using a D-MEM liquid medium (high glucose and L-glutamine contained, Invitrogen Corporation) to which a penicillin-streptomycin solution (Invitrogen Corporation, final concentration: 100 U/mL as benzylpenicillin; 100 μg/mL as streptomycin) as an antibiotic, MEM nonessential amino acids (Invitrogen Corporation, final Concentration: 0.1 mM), and fetal calf serum (Sanko Junyaku Co., Ltd., final concentration: 10%) were added.
(2-2) COS-1 Cell Subculture
The cells that had reached confluence were stripped with 0.05% trypsin/0.53 mM EDTA 4Na (Invitrogen Japan K. K.) and resuspended in the above liquid medium. The resuspended cells were diluted and cultured in the above liquid medium at a spread ratio from 1:4 to 1:8.
(2-3) Preparation of Cells for Introduction of Rat EP1-Expressing Vector
The cells that had reached confluence were stripped with 0.05% trypsin/0.53 mM EDTA.4Na, and resuspended in a D-MEM liquid medium (high glucose and L-glutamine contained, Invitrogen Corporation) to which an MEM nonessential amino acid (final concentration: 0.1 mM) and fetal calf serum (final concentration: 10%) were added. In each well of a Poly D-lysine-coated 96-well microplate (BD BioCoat (registered trademark), Nippon Becton Dickinson Company, Ltd.), this resuspended cell suspension culture was prepared to be 5×10^4 cells/well in 100 μL of the liquid medium, and seeded thereon. After seeding, the cells were cultured in an incubator at 37° C. under a 5% CO2 gas condition. At a point when the cells for introduction of a rat EP1-expressing vector were adhered (about 2 hours after seeding), introduction of the rat EP1-expressing vector was carried out in the following order.
(2-4) Introduction of Rat EP1-Expressing Vector
For introduction of the rat EP1-expressing vector, Lipofectamine 2000 (Invitrogen Japan K. K.) was used. […]

Row | IC50 | Structure (SMILES)
1 | 40 nM | COc1ccc2c(Cc3cccc(C(=O)O)c3)c(-c3ccsc3)[nH]c2c1 [Example 4-12, 3-(6-methoxy-2-thiophen-3-yl-1H-indol-3-ylmethyl)benzoic acid]
2 | 15 nM | O=C(O)c1cccc(Cc2c(-c3ccccc3)[nH]c3cc(Cl)ccc23)n1 [Example 4-17, 6-(6-chloro-2-phenyl-1H-indol-3-ylmethyl)pyridine-2-carboxylic acid]
3 | 28 nM | CCc1ccc2c(Cc3cccc(C(=O)O)n3)c(-c3ccccc3)[nH]c2c1 [Example 4-27]
4 | 44 nM | CCOc1ccc2c(Cc3cccc(C(=O)O)n3)c(-c3ccccc3)[nH]c2c1 [Example 4-34, 6-(6-ethoxy-2-phenyl-1H-indol-3-ylmethyl)pyridine-2-carboxylic acid]
5 | 18 nM | Cc1ccc2c(Cc3cccc(C(=O)O)n3)c(-c3ccccc3)[nH]c2c1 [Example 4-35, 6-(6-methyl-2-phenyl-1H-indol-3-ylmethyl)pyridine-2-carboxylic acid]
6 | 42 nM | O=C(O)c1cccc(Cc2c(-c3ccccc3)[nH]c3cc(C(F)(F)F)ccc23)n1 [Example 11-3]
7 | 23 nM | COc1ccc2c(Cc3cccc(C(=O)O)n3)c(-c3cccc(Cl)c3)[nH]c2c1 [Example 11-21, 6-[2-(3-chlorophenyl)-6-methoxy-1H-indol-3-ylmethyl]pyridine-2-carboxylic acid]

same assay, conditions: Method B (Calcium kit II Fluo 4, FDSS 7000); rat EP1 receptor-expressing cells; prostaglandin E2 10 nM

Row | IC50 | Structure (SMILES)
8 | 476 nM | CC(C)Cc1cn(-c2cccc(C(=O)O)n2)c2cc(Cl)ccc12 [Comparative Example, sodium 6-(6-chloro-3-isobutylindol-1-yl)pyridine-2-carboxylate, reference compound]
9 | 15 nM | COc1ccc2c(Cc3cccc(C(=O)O)n3)c(-c3ccoc3)[nH]c2c1 [Example 11-10, 6-(2-furan-3-yl-6-methoxy-1H-indol-3-ylmethyl)pyridine-2-carboxylic acid]
10 | 32 nM | COc1ccc2c(Cc3cccc(C(=O)O)n3)c(-c3cccnc3)[nH]c2c1 [Example 11-11, 6-(6-methoxy-2-pyridin-3-yl-1H-indol-3-ylmethyl)pyridine-2-carboxylic acid]
11 | 31 nM | COc1ccc2c(Cc3cccc(C(=O)O)n3)c(-c3ccc(F)cc3)[nH]c2c1 [Example 11-13, 6-[2-(4-fluorophenyl)-6-methoxy-1H-indol-3-ylmethyl]pyridine-2-carboxylic acid]
12 | 48 nM | COc1ccc2c(Cc3cccc(C(=O)O)c3)c(-c3ccoc3)[nH]c2c1 [Example 11-15, 3-(2-furan-3-yl-6-methoxy-1H-indol-3-ylmethyl)benzoic acid]
13 | 50 nM | COc1ccc2c(Cc3cccc(C(=O)O)n3)c(-c3cccs3)[nH]c2c1 [Example 11-17, 6-(6-methoxy-2-thiophen-2-yl-1H-indol-3-ylmethyl)pyridine-2-carboxylic acid]
14 | 41 nM | COc1ccc2c(Cc3cccc(C(=O)O)n3)c(-c3cncs3)[nH]c2c1 [Example 11-24, 6-(6-methoxy-2-thiazol-5-yl-1H-indol-3-ylmethyl)pyridine-2-carboxylic acid]
15 | 36 nM | COc1cccc(-c2[nH]c3cc(OC)ccc3c2Cc2cccc(C(=O)O)n2)c1 [Example 11-34, 6-[6-methoxy-2-(3-methoxyphenyl)-1H-indol-3-ylmethyl]pyridine-2-carboxylic acid]
16 | 50 nM | COc1ccc2c(Cc3nc(C(=O)O)cs3)c(-c3ccccc3)[nH]c2c1 [Example 11-37]
17 | 23 nM | COc1ccc2c(Cc3cccc(C(=O)O)n3)c(-c3ccc(F)c(F)c3)[nH]c2c1 [Example 16-2, 6-[2-(3,4-difluorophenyl)-6-methoxy-1H-indol-3-ylmethyl]pyridine-2-carboxylic acid]
18 | 44 nM | COc1ccc2c(Cc3cccc(C(=O)O)n3)c(-c3cc(F)c(F)c(F)c3)[nH]c2c1 [Example 16-6, 6-[6-methoxy-2-(3,4,5-trifluorophenyl)-1H-indol-3-ylmethyl]pyridine-2-carboxylic acid]
19 | 32 nM | O=C(O)c1cccc(Cc2c(-c3ccccc3)[nH]c3cc(C4CC4)ccc23)n1 [Example 16-8, 6-(6-cyclopropyl-2-phenyl-1H-indol-3-ylmethyl)pyridine-2-carboxylic acid]
20 | 41 nM | COc1ccc2c(Cc3cccc(C(=O)O)c3F)c(-c3ccccc3)[nH]c2c1 [Example 16-9, 2-fluoro-3-(6-methoxy-2-phenyl-1H-indol-3-ylmethyl)benzoic acid]
21 | 27 nM | COc1ccc2c(Cc3cccc(C(=O)O)n3)c(-c3cncc(F)c3)[nH]c2c1 [Example 16-11, 6-[2-(5-fluoropyridin-3-yl)-6-methoxy-1H-indol-3-ylmethyl]pyridine-2-carboxylic acid]
22 | 23 nM | COc1cc2[nH]c(-c3ccccc3)c(Cc3cccc(C(=O)O)n3)c2cc1C [Example 16-12, 6-(6-methoxy-5-methyl-2-phenyl-1H-indol-3-ylmethyl)pyridine-2-carboxylic acid]
23 | 36 nM | COc1cc2[nH]c(-c3ccccc3)c(Cc3cccc(C(=O)O)n3)c2cc1Cl [Example 16-13, 6-(5-chloro-6-methoxy-2-phenyl-1H-indol-3-ylmethyl)pyridine-2-carboxylic acid]
24 | 25 nM | COc1cc2[nH]c(-c3ccccc3)c(Cc3cccc(C(=O)O)n3)c2cc1F [Example 16-16, 6-(5-fluoro-6-methoxy-2-phenyl-1H-indol-3-ylmethyl)pyridine-2-carboxylic acid]
25 | 30 nM | COc1ccc2c(Cc3ccc(F)c(C(=O)O)c3)c(-c3ccccc3)[nH]c2c1 [Example 16-18, 2-fluoro-5-(6-methoxy-2-phenyl-1H-indol-3-ylmethyl)benzoic acid]
26 | 24 nM | Cc1ccc2c(Cc3cccc(C(=O)O)n3)c(-c3ccsc3)[nH]c2c1 [Example 16-21, 6-(6-methyl-2-thiophen-3-yl-1H-indol-3-ylmethyl)pyridine-2-carboxylic acid]
27 | 34 nM | COc1cc2c(Cc3cccc(C(=O)O)n3)c(-c3ccccc3)[nH]c2cc1Cl [Example 16-23, 6-(6-chloro-5-methoxy-2-phenyl-1H-indol-3-ylmethyl)pyridine-2-carboxylic acid]
28 | 22 nM | COc1cc2[nH]c(-c3ccsc3)c(Cc3cccc(C(=O)O)n3)c2cc1C [Example 16-24, 6-(6-methoxy-5-methyl-2-thiophen-3-yl-1H-indol-3-ylmethyl)pyridine-2-carboxylic acid]
29 | 30 nM | COc1cc2[nH]c(-c3ccsc3)c(Cc3cccc(C(=O)O)n3)c2cc1F [Example 16-28, 6-(5-fluoro-6-methoxy-2-thiophen-3-yl-1H-indol-3-ylmethyl)pyridine-2-carboxylic acid]
30 | 27 nM | COc1cc2[nH]c(-c3ccsc3)c(Cc3cccc(C(=O)O)n3)c2cc1Cl [Example 16-29, 6-(5-chloro-6-methoxy-2-thiophen-3-yl-1H-indol-3-ylmethyl)pyridine-2-carboxylic acid]

Reference: patent publication US20120122931A1, “INDOLE DERIVATIVE OR PHARMACEUTICALLY ACCEPTABLE SALT THEREOF” (KISSEI PHARMACEUTICAL CO., LTD., priority 2009, published 2012)
